Test systems include CAKI-1 renal; DU-145 prostate; K-562 leukemia; KM12 colon; M14 melanoma; MOLT-4 leukemia; OVCAR-4 ovarian; UACC-62 melanoma.
Experiment in all cases: NCI anticancer screen, dose series, 48 h

“And” between values parts separate entries of the source, which are not always exact repeats. Equal entries are not always repeated.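 Method: 48-hour compound exposure of cells in 96-well plates, five concentrations, linear interpolation of endpoints. At the GI50, growth is halved. At the TGI there is no net growth.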

The source of these data is PubChem BioAssay (NCI).

With `Cc1cc(C(=O)N[C@@H](CCC(=O)O)C(=O)O)sc1CC[C@@H]1CNc2nc(N)[nH]c(=O)c2C1`, the GI50 was < 0.01 µM in the assay on CAKI-1 renal; < 0.0104 µM with DU-145 prostate; < 0.01 µM in the assay on K-562 leukemia; 0.046 µM in the assay with KM12 colon; < 0.0124 µM in the assay on M14 melanoma; 0.0292 µM in the assay with MOLT-4 leukemia. The GI50 was 23.3 µM in the assay on OVCAR-4 ovarian and 0.0378 µM with UACC-62 melanoma. For the same compound, the TGI in the assay on CAKI-1 renal, in the assay on DU-145 prostate, in the assay on K-562 leukemia, in the assay with KM12 colon, with M14 melanoma and in the assay on MOLT-4 leukemia was > 100 µM throughout. Besides, the TGI with OVCAR-4 ovarian and in the assay on UACC-62 melanoma was > 100 µM in each case.

As to `COc1ccccc1-c1ccc2nc(NC(=O)Nc3cc(C(F)(F)F)cc(C(F)(F)F)c3)sc2c1`, the GI50 with CAKI-1 renal is 2.33 µM; in the assay on DU-145 prostate, 4 µM; in the assay with K-562 leukemia it was 1.54 µM; with KM12 colon it was 2.07 µM; with M14 melanoma, 1.54 µM; in the assay with MOLT-4 leukemia, 1.58 µM. The results for the GI50 with OVCAR-4 ovarian and with UACC-62 melanoma were 2.12 µM and 1.56 µM, respectively. Besides, the TGI in the assay on CAKI-1 renal was 6.35 µM; with DU-145 prostate it was 14.9 µM; in the assay with K-562 leukemia, 8.95 µM; with KM12 colon, 6.45 µM; in the assay with M14 melanoma it was 3.22 µM; in the assay on MOLT-4 leukemia it was 7.24 µM. Besides, the values for the TGI with OVCAR-4 ovarian and in the assay on UACC-62 melanoma were 9.96 µM and 3.26 µM, respectively.

On to `CSC1=Nc2c(c(C)c(-c3ccccc3)n2CCCCl)C2=NC(=O)CN12`, for which the GI50 was 4.6 µM in the assay on CAKI-1 renal; 11.5 µM with DU-145 prostate; 5.77 µM in the assay with K-562 leukemia; 4.2 µM in the assay on KM12 colon; 3.32 µM in the assay with M14 melanoma; 3.93 µM with MOLT-4 leukemia. Moreover, the results for the GI50 in the assay with OVCAR-4 ovarian and in the assay with UACC-62 melanoma were 6.74 µM and 2.08 µM, respectively. Further, the TGI with CAKI-1 renal is 28.1 µM; with DU-145 prostate it was 26.7 µM; in the assay with K-562 leukemia, > 100 µM; in the assay on KM12 colon, 18.7 µM; in the assay on M14 melanoma, 15.2 µM; with MOLT-4 leukemia, > 100 µM. Also, the TGI in the assay on OVCAR-4 ovarian amounted to 44.9 µM; with UACC-62 melanoma it was 11.6 µM.

As for `COc1ccc2c(O)c(/C=C3\N=Nc4ncccc43)oc2c1C[C@H]1CCNC[C@H]1F`, the GI50 in the assay with CAKI-1 renal is 0.161 µM; in the assay on DU-145 prostate, 0.753 µM; with K-562 leukemia, 0.436 µM; with KM12 colon, 0.39 µM; in the assay with M14 melanoma, 0.589 µM; with MOLT-4 leukemia it was 0.294 µM. Further, the values for the GI50 in the assay on OVCAR-4 ovarian and in the assay with UACC-62 melanoma were 0.566 µM and 0.476 µM, respectively. The TGI with CAKI-1 renal is 11.3 µM; in the assay on DU-145 prostate, 12 µM; in the assay with K-562 leukemia it was 27.4 µM; with KM12 colon it was 4.79 µM; in the assay on M14 melanoma, 3.64 µM; in the assay with MOLT-4 leukemia, 1.62 µM. For the same compound, the TGI with OVCAR-4 ovarian amounted to 6.84 µM; with UACC-62 melanoma, 2.38 µM.

In the case of `O=[N+]([O-])c1cccc(/C=C/c2ccccn2)c1`, the GI50 with CAKI-1 renal was 34.5 µM; in the assay with DU-145 prostate, 35.6 µM; in the assay with K-562 leukemia, 41.2 µM; in the assay with KM12 colon, 24.2 µM; in the assay with M14 melanoma, 52.1 µM; with MOLT-4 leukemia it was > 100 µM. Also, the GI50 is 18.8 µM in the assay with OVCAR-4 ovarian and 60 µM in the assay with UACC-62 melanoma. Besides, the TGI with CAKI-1 renal, with DU-145 prostate, in the assay with K-562 leukemia, in the assay with KM12 colon, with M14 melanoma and in the assay on MOLT-4 leukemia was > 100 µM throughout. For the same compound, the TGI with OVCAR-4 ovarian and in the assay on UACC-62 melanoma was > 100 µM throughout.

Regarding `CCc1nc(-n2c(CC)nc3ccccc3c2=O)nc(N)c1-c1ccc(Cl)cc1`, the GI50 in the assay on CAKI-1 renal was 22.3 µM; with DU-145 prostate it was > 76.5 µM; with K-562 leukemia it was 17.6 µM; in the assay with KM12 colon it was 38.5 µM; in the assay with M14 melanoma, 52.6 µM; in the assay with MOLT-4 leukemia, 73.3 µM. The GI50 in the assay with OVCAR-4 ovarian was > 100 µM; in the assay with UACC-62 melanoma it was 5.46 µM. The TGI in the assay with CAKI-1 renal is > 84.3 µM; in the assay on DU-145 prostate, > 100 µM; in the assay with K-562 leukemia, > 100 µM; with KM12 colon, > 100 µM; in the assay on M14 melanoma, > 100 µM; in the assay with MOLT-4 leukemia it was > 100 µM. The TGI in the assay with OVCAR-4 ovarian and with UACC-62 melanoma was > 100 µM each time.

As for `CNS(=O)(=O)c1ccccc1C(=N)c1ccccc1`, the TGI in the assay on CAKI-1 renal, with DU-145 prostate, with K-562 leukemia, in the assay on KM12 colon, with M14 melanoma and in the assay on MOLT-4 leukemia was > 100 µM each time. In addition, the TGI in the assay on OVCAR-4 ovarian and with UACC-62 melanoma was > 100 µM throughout.

As for `c1ccc(CCCNc2nnnc3ccccc23)cc1`, the TGI with CAKI-1 renal, in the assay with DU-145 prostate, with K-562 leukemia, in the assay on KM12 colon, in the assay with M14 melanoma and in the assay with MOLT-4 leukemia was > 100 µM each time. In addition, the TGI in the assay with OVCAR-4 ovarian and in the assay on UACC-62 melanoma was > 100 µM in each case.

As to `COc1ccc(-c2ccc3ncc4c(c3c2)n(-c2ccc(N3CCNCC3)c(C(F)(F)F)c2)c(=O)n4C)cn1`, the GI50 in the assay with CAKI-1 renal was 0.0179 µM and 0.0119 µM; with DU-145 prostate, < 0.01 µM and 0.00475 µM; in the assay with K-562 leukemia, 0.00843 µM; with KM12 colon it was < 0.01 µM and 0.0117 µM; in the assay with M14 melanoma, 0.00455 µM; in the assay with MOLT-4 leukemia it was < 0.01 µM and 0.00654 µM. Besides, the GI50 in the assay on OVCAR-4 ovarian was < 0.01 µM and 0.0029 µM; in the assay with UACC-62 melanoma, < 0.01 µM and 0.00599 µM. Also, the TGI was 0.884 µM and 0.118 µM in the assay on CAKI-1 renal; 0.686 µM and 0.433 µM in the assay on DU-145 prostate; 0.204 µM in the assay with K-562 leukemia; 0.694 µM and 0.406 µM with KM12 colon; 0.0621 µM with M14 melanoma; 0.186 µM and 0.143 µM in the assay on MOLT-4 leukemia. Further, the TGI in the assay with OVCAR-4 ovarian is 0.0207 µM and 0.0252 µM; with UACC-62 melanoma it was 0.0269 µM and 0.0286 µM.

`COc1cc(OC)cc(-c2ccc(-c3ccc(C(=N)N)s3)s2)c1`: the GI50 in the assay with CAKI-1 renal was 1.38 µM; with DU-145 prostate it was 1.31 µM; in the assay on K-562 leukemia, 0.346 µM and 0.178 µM; in the assay with KM12 colon, 0.517 µM and 0.302 µM; in the assay on M14 melanoma, 1.1 µM; in the assay on MOLT-4 leukemia, 0.396 µM and 0.23 µM. In addition, the GI50 in the assay on OVCAR-4 ovarian was 1.44 µM; in the assay with UACC-62 melanoma it was 1.75 µM. In addition, the TGI is 2.78 µM with CAKI-1 renal; 2.77 µM with DU-145 prostate; 1.11 µM and 0.441 µM in the assay on K-562 leukemia; 2.04 µM and 1.13 µM in the assay with KM12 colon; 2.74 µM in the assay on M14 melanoma; 1.12 µM and 0.486 µM in the assay with MOLT-4 leukemia. Also, the TGI with OVCAR-4 ovarian came out at 3.62 µM; in the assay with UACC-62 melanoma, 3.53 µM.

Turning to `Cc1cc(S(N)(=O)=O)c(S/C(=N\Nc2ccc([N+](=O)[O-])cc2)c2ccc(O)cc2)cc1Cl`, the GI50 in the assay on CAKI-1 renal was 2.3 µM; in the assay on DU-145 prostate, 5.31 µM; in the assay with K-562 leukemia it was 2.7 µM; with KM12 colon, 1.96 µM; with M14 melanoma, 2.61 µM; in the assay with MOLT-4 leukemia, 2.97 µM. The GI50 was 3.43 µM in the assay with OVCAR-4 ovarian and 1.79 µM in the assay with UACC-62 melanoma. Moreover, the TGI in the assay on CAKI-1 renal was 5.22 µM; with DU-145 prostate it was 23.9 µM; in the assay on K-562 leukemia, > 100 µM; with KM12 colon it was 4.14 µM; in the assay on M14 melanoma, 7.15 µM; with MOLT-4 leukemia it was > 100 µM. Also, the TGI was determined as 7.94 µM in the assay with OVCAR-4 ovarian and 3.84 µM in the assay with UACC-62 melanoma.

With `OC(COc1cccc2ccccc12)CN1CCN(c2ccc(Cl)cc2)CC1` (centres undefined), the GI50 in the assay with CAKI-1 renal was 5.8 µM; with DU-145 prostate, 38.9 µM; with K-562 leukemia, > 100 µM; in the assay on KM12 colon, 38.3 µM; in the assay on M14 melanoma, 64.8 µM; in the assay with MOLT-4 leukemia, > 100 µM. In addition, the results for the GI50 in the assay on OVCAR-4 ovarian and in the assay on UACC-62 melanoma were 21.7 µM and 23.3 µM, respectively. Moreover, the TGI was 31.4 µM in the assay with CAKI-1 renal; > 100 µM in the assay with DU-145 prostate; > 100 µM in the assay on K-562 leukemia; > 100 µM with KM12 colon; > 100 µM with M14 melanoma; > 100 µM in the assay on MOLT-4 leukemia. Besides, the TGI with OVCAR-4 ovarian was 49.3 µM; in the assay with UACC-62 melanoma, > 100 µM.

For the compound `CC(C)(C)CC(C)(C)N(CSc1ccc(Cl)cc1)CSc1ccc(Cl)cc1`, the GI50 with CAKI-1 renal is 1.78 µM; in the assay on DU-145 prostate, 2.25 µM; with K-562 leukemia, 3.49 µM; in the assay with KM12 colon, 0.486 µM; in the assay with M14 melanoma it was 1.92 µM; in the assay with MOLT-4 leukemia, 0.841 µM. In addition, the results for the GI50 in the assay with OVCAR-4 ovarian and in the assay on UACC-62 melanoma were 1.74 µM and 1.72 µM, respectively. The TGI in the assay with CAKI-1 renal worked out at 4.55 µM; with DU-145 prostate it was 11.2 µM; with K-562 leukemia, 26 µM; with KM12 colon it was 4.55 µM; with M14 melanoma, 5.91 µM; with MOLT-4 leukemia, 5.09 µM. Moreover, the TGI was 9.88 µM in the assay on OVCAR-4 ovarian and 3.77 µM in the assay on UACC-62 melanoma.

On to `[C-]#[O+].[C-]#[O+].[Ir].[O-]c1ccc2ccccc2c1N=Nc1ccccc1`, for which the TGI was 22.7 µM in the assay on CAKI-1 renal; 31.9 µM in the assay on DU-145 prostate; 80.4 µM in the assay with K-562 leukemia; > 44.1 µM in the assay on KM12 colon; 13.2 µM in the assay on M14 melanoma; 50.2 µM in the assay on MOLT-4 leukemia. For the same compound, the figures for the TGI in the assay with OVCAR-4 ovarian and in the assay on UACC-62 melanoma were 24.7 µM and 29.2 µM, respectively. The GI50 in the assay on KM12 colon was 13 µM.

Take `Clc1ccccc1-c1nc(-c2ccncc2)no1`: the TGI in the assay on CAKI-1 renal, in the assay with DU-145 prostate, with K-562 leukemia, in the assay with KM12 colon, in the assay on M14 melanoma and in the assay on MOLT-4 leukemia was > 100 µM in each case. In addition, the TGI in the assay on OVCAR-4 ovarian and in the assay with UACC-62 melanoma was > 100 µM throughout.
